# Results reported in patent US20240190821A1, “SULFONAMIDE SUBSTITUTED N-(1H-INDOL-7-YL)BENZENESULFONAMIDES AND USES THEREOF” (Triana Biomedicines, Inc., priority 2021, published 2024).
# What was measured:
# HCT116 cells = test: HCT116 cell viability using CellTiter-Glo; format: cell-based; conditions: Homo sapiens, HCT-116, HCT116, 72 h, read-out: 3-Day CTG IC50 in HCT116
# Experimental: Example 108: Measurement of HCT116 Cell Viability Using CellTiter-Glo
# HCT116 cells with the passage number ranging from 13 to 25 were plated in an opaque-walled 384 well plate (Corning, Cat. #3765, Corning, NY) at a density of 1000 cells/well in 50 μl medium containing McCoy's 5A medium (Cat. #16600082, ThermoFisher, Waltham, MA), 10% Fetal Bovine Serum (Cat. #26140, ThermoFisher, Waltham, MA) and 1% Pen-Strep (Cat. #. 15070063, ThermoFisher, Waltham, MA). After overnight incubation, cells were treated with various concentrations of compounds (0-10 μM) in DMSO (final concentration of 0.2% DMSO) for 72 h. CellTiter-Glo® Reagent (Cat. #G7573, Promega, Waltham, MA) was then added to all wells. The plates were placed on an orbital shaker to mix the content and induce cell lysis. The plates were then incubated at room temperature for 10 minutes to stabilize luminescent signal. The luminescence was recorded using Envision multilabel plate reader (Perkin-Elmers, Waltham, MA) and the data was fit by using Excel-fit (Microsoft, Redmond, WA).
# [1] = molecular target: T1, DCAF15-RBM39 ternary complex (Homo sapiens, UniProt Q14498+Q66K64); test: Compound-induced DCAF15-RBM39 ternary complex formation, AlphaLISA; format: biochemical; conditions: AlphaLISA, His-tagged DCAF15 complex and biotin-carrying RBM39; read-out: Ternary-RBM39 (RRM2) EC50
# T1 construct: (RRM2)
# T1 sequence (Q66K64 whole entry): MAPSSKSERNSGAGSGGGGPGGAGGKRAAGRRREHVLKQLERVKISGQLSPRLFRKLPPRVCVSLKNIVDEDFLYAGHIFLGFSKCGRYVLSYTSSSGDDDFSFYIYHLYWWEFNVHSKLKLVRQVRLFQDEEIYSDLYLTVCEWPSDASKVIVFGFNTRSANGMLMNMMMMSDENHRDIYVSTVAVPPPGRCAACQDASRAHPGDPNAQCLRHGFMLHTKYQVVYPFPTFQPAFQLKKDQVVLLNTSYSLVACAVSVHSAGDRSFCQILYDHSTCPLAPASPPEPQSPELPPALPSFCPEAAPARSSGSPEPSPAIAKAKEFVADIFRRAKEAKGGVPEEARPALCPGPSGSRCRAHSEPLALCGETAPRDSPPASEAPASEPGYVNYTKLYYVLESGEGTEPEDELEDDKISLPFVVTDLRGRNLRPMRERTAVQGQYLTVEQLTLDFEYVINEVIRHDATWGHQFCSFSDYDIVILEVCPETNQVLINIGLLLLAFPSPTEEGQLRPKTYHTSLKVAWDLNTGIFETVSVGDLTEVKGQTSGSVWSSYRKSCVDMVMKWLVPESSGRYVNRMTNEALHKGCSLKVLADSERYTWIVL
# T1 sequence (Q14498 250-328 limits assumed): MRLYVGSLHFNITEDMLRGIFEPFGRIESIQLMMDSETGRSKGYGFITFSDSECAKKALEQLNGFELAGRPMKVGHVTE
# T1 sequence (Q16531 whole entry partner): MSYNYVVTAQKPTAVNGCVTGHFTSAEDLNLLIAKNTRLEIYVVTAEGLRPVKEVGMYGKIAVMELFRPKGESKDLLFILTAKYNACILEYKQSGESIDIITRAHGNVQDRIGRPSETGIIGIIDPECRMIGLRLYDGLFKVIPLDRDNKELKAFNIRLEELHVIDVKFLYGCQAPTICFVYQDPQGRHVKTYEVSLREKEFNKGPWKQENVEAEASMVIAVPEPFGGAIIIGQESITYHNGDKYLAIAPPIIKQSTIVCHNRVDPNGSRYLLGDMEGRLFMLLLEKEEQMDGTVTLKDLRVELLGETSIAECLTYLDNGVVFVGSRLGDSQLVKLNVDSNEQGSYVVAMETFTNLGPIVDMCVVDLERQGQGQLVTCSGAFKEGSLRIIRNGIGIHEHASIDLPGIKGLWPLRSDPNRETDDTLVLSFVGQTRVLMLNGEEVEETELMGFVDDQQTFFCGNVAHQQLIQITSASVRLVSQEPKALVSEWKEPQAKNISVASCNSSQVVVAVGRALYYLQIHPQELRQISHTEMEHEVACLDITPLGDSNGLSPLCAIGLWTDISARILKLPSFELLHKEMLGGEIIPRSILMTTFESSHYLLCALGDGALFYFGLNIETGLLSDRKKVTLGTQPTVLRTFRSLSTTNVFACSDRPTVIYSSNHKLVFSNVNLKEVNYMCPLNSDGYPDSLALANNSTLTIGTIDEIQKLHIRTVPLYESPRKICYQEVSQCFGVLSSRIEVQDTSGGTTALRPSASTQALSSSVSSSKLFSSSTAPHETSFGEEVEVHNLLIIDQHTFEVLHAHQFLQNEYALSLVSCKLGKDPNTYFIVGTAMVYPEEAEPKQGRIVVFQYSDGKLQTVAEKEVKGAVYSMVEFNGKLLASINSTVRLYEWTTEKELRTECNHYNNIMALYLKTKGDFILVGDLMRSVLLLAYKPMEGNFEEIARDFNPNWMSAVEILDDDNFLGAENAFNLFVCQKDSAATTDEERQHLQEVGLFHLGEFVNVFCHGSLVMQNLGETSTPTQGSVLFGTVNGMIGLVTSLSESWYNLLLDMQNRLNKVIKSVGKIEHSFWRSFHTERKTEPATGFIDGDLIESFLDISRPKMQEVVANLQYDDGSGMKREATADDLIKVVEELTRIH
# In short: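 Protein mixture incubated with compounds for one hour at room temperature; AlphaLISA beads then added sequentially, 1-2 h at room temperature after each. No-compound wells served as negative controls; His-tagged biotinylated GST tracked assay performance.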
# RBM39 = molecular target: T2, RBM39 (Homo sapiens, UniProt Q14498+Q66K64); test: Western blot assay for degradation of RBM39 in HCT116 cells; format: cell-based; conditions: HCT116, 4 h
# T2 construct: endogenous in cells; host or cells: HCT116
# Experimental: Example 107: Western Blot Assay Procedure for Assessing Degradation of RBM39 in HCT116 Cells
# HCT116 cells were used with passage numbers ranging from 13 to 25. Cells were seeded in 12-well plated at a density of 1 million cells per well in 1 mL cell culture medium containing McCoy's 5A medium (Cat. #16600082, ThermoFisher, Waltham, MA), 10% Fetal Bovine Serum (Cat. #26140, ThermoFisher, Waltham, MA) and 1% Pen-Strep (Cat. #. 15070063, ThermoFisher, Waltham, MA) and incubated overnight. The next morning, compounds were serially diluted (1:3, 9 points) in the medium separately and were prepared 2× the final assay concentration. Subsequently, 1.0 mL medium containing DMSO or the appropriate concentration of each compound was added to respective wells. The final DMSO concentration in each well was 0.1%. […] Cells were then washed once with 1 mL of ice cold Dulbecco's phosphate-buffered saline (Cat. #28374, ThermoFisher, Waltham, MA) and then lysed with 100 μl of lysis buffer containing 1× RIPA (Cat. #. 89900, ThermoFisher, Waltham, MA) and HALT protease and phosphatase inhibitor (Cat. #78442, ThermoFisher, Waltham, MA) on ice for 10 minutes with intermittent rocking. Lysates were then sonicated in a sonication bath (3 pulses of 10 sec each with 1 min incubation on ice between each pulse). Samples were then centrifuged for 20 min at 14,000 rpm for 20 min. Supernatants were then transferred to fresh microfuge tubes and stored frozen at −80° C. until use. Total protein quantitation in lysate samples was done using the BCA protein quantitation kit following the manufacturer's instructions. For polyacrylamide gel electrophoresis, each sample ([…] total protein), was diluted with Laemmli sample buffer (Cat. #. 1610747, BioRad, Hercules, CA) by adding 9 ul of lysate to 3 ul of sample buffer containing 10% β-mercaptoethanol. Samples were then denatured at 95° C. for 5 minutes in a heat block, centrifuged at 14,000 rpm for 5 min, and placed on ice. Subsequently, 12 ul of each sample was loaded on 4-20% Tris/Glycine gels and electrophoresed in 1×Tris/Glycine SDS buffer at 80 (constant) volts for 2 h. Resolved samples were then transferred from gels to PVDF membrane using the BioRad Turbo-transfer unit with the Turbo default program (Cat. #. 1704150EDU, BioRad, Hercules, CA). For immunoblotting, membranes were first blocked for 1 hour at room temperature using Odyssey Blocking Buffer (Cat. #: 927-60001, Li-cor, Lincoln, NE) with continuous rocking. Membrane was then incubated with primary antibodies, anti-RBM39 (Sigma Cat. #: HPA001591, St. Louis, MO) and anti-β-actin (Cell Signaling Cat. #3700S, Danvers, MA), diluted 1000 fold each, at 4° C. for overnight. Subsequently, membrane was washed three times for at room temperature with continuous rocking (5 minutes each wash) using TBS buffer containing 0.1% Tween-20. After the final wash, secondary antibodies, IRDye 680 RD Goat anti Mouse IgG H+L (Cat. #: 926-68070, Li-cor, Lincoln, NE), and IRDye 800CW Goat anti Rabbit IgG H+L (Cat. #: 926-32211, Li-cor, Lincoln, NE), each diluted 10,000-fold, were added to the membranes and incubated at room temperature for 1 h with continuous rocking. Membranes were then washed 3 times with 1×TBS and scanned using Odessey CLx imaging system (Li-cor, Lincoln, NE) using default settings. Band intensity in images was quantified using the Image Studio Lite software (Version 5.2). Signal intensity for RBM-39 specific bands were normalized using the signal intensity for β-actin-specific band, and percent degradation was assessed by comparing RBM39 signal in compound-treated vs. DMSO-treated samples.
# DCAF15 = DCAF15 (Homo sapiens, UniProt Q66K64); test: Binary interaction between compounds and DCAF15, HTRF competition assay; format: binding; conditions: HTRF competition with Alexa Fluor 647 tracer, His-tagged DCAF15 complex; read-out: DCAF15 IC50
# DCAF15, sequence (Q66K64 whole entry): as the sequence (Q66K64 whole entry) above
# DCAF15, sequence (Q16531 whole entry partner): as the sequence (Q16531 whole entry partner) above
# In short: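 HTRF competition format: DCAF15 premixed 15 min at room temperature with anti-6His-Eu cryptate antibody, then combined with tracer and compound. Binding derived from ratiometric signal with titration curves; no-DCAF15 wells as controls.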
SMILES,IC50 (HCT116 cells),EC50 [1],DC50 (RBM39),IC50 (DCAF15)
"Cc1ccc(NS(=O)(=O)c2cccc(C#N)c2)c2[nH]cc(C#N)c12 [Compound E-7820, E-7820, reference compound]",< 1 µM,,,
"Cc1ccc(NS(=O)(=O)c2cccc(C#N)c2)c2[nH]cc(C(F)F)c12 [Compound 100, 3-cyano-N-(3-(difluoromethyl)-4-methyl-1H-indol-7-yl)benzenesulfonamide]",< 1 µM,< 5 µM,,
"CC(C)C(=O)Nc1cccc(CNS(=O)(=O)c2ccc(S(=O)(=O)Nc3ccc(Cl)c4c(Cl)c[nH]c34)cc2)c1 [Compound 13, N-(3-(((4-(N-(3,4-dichloro-1H-indol-7-yl)sulfamoyl)phenyl)sulfonamido)methyl)phenyl) isobutyramide]",,< 20 µM,,< 20 µM
"Cc1ccc(NS(=O)(=O)c2cc(F)cc(C#N)c2)c2[nH]cc(C(F)F)c12 [Compound 101, 3-cyano-N-(3-(difluoromethyl)-4-methyl-1H-indol-7-yl)-5-fluorobenzene sulfonamide]",< 1 µM,< 5 µM,,< 100 µM
"O=S(=O)(Nc1ccc(Cl)c2c(Cl)c[nH]c12)c1cccc(Br)c1 [Compound 76, 3-bromo-N-(3,4-dichloro-1H-indol-7-yl)benzenesulfonamide]",,< 5 µM,,< 20 µM
"Cn1cc(-c2ccc(S(=O)(=O)Nc3ccc(Cl)c4c(Cl)c[nH]c34)cc2)cn1 [Compound 61, N-(3,4-dichloro-1H-indol-7-yl)-4-(1-methyl-1H-pyrazol-4-yl)benzenesulfonamide]",,< 5 µM,,< 5 µM
"CCC(NS(=O)(=O)c1ccc(S(=O)(=O)Nc2ccc(Cl)c3c(Cl)c[nH]c23)cc1)c1ccc2c(c1)OCCO2 (stereo not drawn) [Compound 14, N1-(3,4-dichloro-1H-indol-7-yl)-N^4-(1-(2,3-dihydrobenzo[b][1, 4]dioxin-6-yl)propyl)benzene-1,4-disulfonamide]",,< 20 µM,,< 20 µM
"Cc1cnc(CNS(=O)(=O)c2ccc(S(=O)(=O)Nc3ccc(Cl)c4c(Cl)c[nH]c34)cc2)cn1 [Compound 19, N^1-(3,4-dichloro-1H-indol-7-yl)-N4_ ((5-methylpyrazin-2-yl)methyl)benzene-1,4-disulfonamide]",,< 1 µM,,< 5 µM
"O=S(=O)(Nc1ccc(Cl)c2cc[nH]c12)c1ccc(S(=O)(=O)N2CCNCC2)cc1 [Compound 87, N-(4-chloro-1H-indol-7-yl)-4-(piperazin-1-ylsulfonyl)benzenesulfonamide]",,< 5 µM,,< 20 µM
"CCc1nc(CN(C)S(=O)(=O)c2ccc(S(=O)(=O)Nc3ccc(Cl)c4c(Cl)c[nH]c34)cc2)no1 [Compound 20, N^1-(3,4-dichloro-1H-indol-7-yl)-N^4-((5-ethyl-1,2,4-oxadiazol-3-yl)methyl)-N4. methylbenzene-1,4-disulfonamide]",,< 5 µM,,< 5 µM
"CCCN(C1CCNCC1)S(=O)(=O)c1ccc(S(=O)(=O)Nc2ccc(Cl)c3c(Cl)c[nH]c23)cc1 [Compound 30, N^1-(3,4-dichloro-1H-indol-7-yl)-N^4-(piperidin-4-yl)-N^4-propylbenzene-1,4-disulfonamide]",,< 1 µM,,< 5 µM
"Cc1ccc(NS(=O)(=O)c2ccc(S(=O)(=O)N3CC4CNCC4C3)cc2)c2[nH]cc(C#N)c12 (stereo not drawn) [Compound 92, N-(3-cyano-4-methyl-1H-indol-7-yl)-4-((hexahydropyrrolo[3,4-c]pyrrol-2(1H)-yl)sulfonyl)benzenesulfonamide]",,< 1 µM,,< 20 µM
"O=S(=O)(Nc1ccc(Cl)c2c(Cl)c[nH]c12)c1ccc(C2(N3CCNCC3)COC2)cc1 [Compound 60, N-(3,4-dichloro-1H-indol-7-yl)-4-(3-(piperazin-1-yl)oxetan-3-yl)benzenesulfonamide]",,< 1 µM,,< 5 µM

# Now from value to molecule:
IC50 (HCT116 cells),EC50 [1],DC50 (RBM39),IC50 (DCAF15),SMILES
< 1 µM,< 1 µM,,,"NS(=O)(=O)c1ccc(S(=O)(=O)Nc2cccc3c(Cl)c[nH]c23)cc1 [Indisulam, indisulam, reference compound]"
< 1 µM,< 1 µM,,,"COCCNS(=O)(=O)c1ccc(S(=O)(=O)Nc2ccc(Cl)c3c(Cl)c[nH]c23)cc1 [Compound 2, N^1-(3,4-dichloro-1H-indol-7-yl)-N^4-(2-methoxyethyl)benzene-1,4-disulfonamide]"
,< 1 µM,< 0.1 µM,,"N#Cc1cccc(S(=O)(=O)Nc2ccc(Cl)c3c(Cl)c[nH]c23)c1 [Compound 74, 3-cyano-N-(3,4-dichloro-1H-indol-7-yl)benzenesulfonamide]"
,< 1 µM,,< 5 µM,"CN1CCC(S(=O)(=O)c2ccc(S(=O)(=O)Nc3ccc(Cl)c4c(Cl)c[nH]c34)cc2)CC1 [Compound 58, N-(3,4-dichloro-1H-indol-7-yl)-4-((1-methylpiperidin-4-yl)sulfonyl)benzene sulfonamide]"
,< 1 µM,,< 5 µM,"O=S(=O)(Nc1ccc(Cl)c2c(Cl)c[nH]c12)c1ccc(C2(N3CCNCC3)CC2)cc1 [Compound 59, N-(3,4-dichloro-1H-indol-7-yl)-4-(1-(piperazin-1-yl)cyclopropyl) benzenesulfonamide]"
,< 1 µM,,< 20 µM,"Cc1ccc(NS(=O)(=O)c2ccc(S(=O)(=O)N3CCN(C4COC4)CC3)cc2)c2[nH]cc(C#N)c12 [Compound 86, N-(3-cyano-4-methyl-1H-indol-7-yl)-4-((4-(oxetan-3-yl)piperazin-1-yl)sulfonyl)benzenesulfonamide]"
,< 1 µM,,< 5 µM,"O=S(=O)(NCC1CCN(CCCc2ccccc2)CC1)c1ccc(S(=O)(=O)Nc2ccc(Cl)c3c(Cl)c[nH]c23)cc1 [Compound 10, N^1-(3,4-dichloro-1H-indol-7-yl)-N^4-((1-(3-phenylpropyl)piperidin-4-yl)methyl)benzene-1,4-disulfonamide]"
,< 1 µM,,< 5 µM,"O=S(=O)(Nc1ccc(Cl)c2c(Cl)c[nH]c12)c1ccc(S(=O)(=O)N2CCCNCC2)cc1 [Compound 52, 4-((1,4-diazepan-1-yl)sulfonyl)-N-(3,4-dichloro-1H-indol-7-yl)benzene sulfonamide]"
